Consider 36 molecules from patent US11208399B2, “NLRP3 inflammasome inhibitors” (Novartis AG, priority 2019, dated 2021).

Structures can show the parent of a compound that is named as a salt. Bounds are passed on as bounds.

This test concerns NF-kB-dependent TNF-α secretion. The test is described as follows: TNF-α secretion assay in THP-1 cells (counter screen, HTRF). The settings on record: Homo sapiens, Pam3CSK4-stimulated, 3 hours. It is filed as cell-based. The method, then: Monocytic THP-1 cells were maintained according to providers' instructions in RPMI media as described above. […] Experimental compounds were prepared and added as described above. TNF-α secretion was triggered by the addition of either 1 μg/mL LPS (Sigma, #L4391) or 100 ng/mL Pam3CSK4 (Invivogen, #tlrl-pms) depending on the experiment, and cells were incubated for 3 hours. 10 μL supernatant was removed, and TNF-α levels were monitored using an HTRF assay (CisBio, #62TNFPEC) according to manufacturers' instructions. Viability was monitored as described above.
IC50 values were calculated from the plot of percentage of inhibition versus the inhibitor concentration by a logistics fit according to: y=A2+(A1−A2)/(1+(x/IC50)^p) where y is the %-inhibition at the inhibitor concentration, x. A1 is the lowest inhibition value, i.e. 0%, and A2 the maximum inhibition value, i.e. 100%. The exponent, p, is the Hill coefficient. The curve fitting was conducted with an internally developed software suite. […]
`CCN1CCC[C@@H](Nc2nnc(-c3c(C)cc(C(F)(F)F)cc3O)cc2C#N)C1` [Ex 11, (R)-3-((1-Ethylpiperidin-3-yl)amino)-6-(2-hydroxy-6-methyl-4-(trifluoromethyl)phenyl)pyridazine-4-carbonitrile] came in with an IC50 of more than 100 µM.
In the case of `CN1CCC[C@@H](Nc2ccc(-c3c(O)cc(Cl)cc3Cl)nn2)C1` [Ex 45, (R)-3,5-Dichloro-2-(6-((1-methylpiperidin-3-yl)amino)pyridazin-3-yl)phenol TFA-salt] it was more than 100 µM; in that of `Cc1cc(-c2c(C)cc(C(F)(F)F)cc2O)nnc1N[C@@H]1CCCN(CCO)C1` [Ex 13, (R)-2-(6-((1-(2-Hydroxyethyl)piperidin-3-yl)amino)-5-methylpyridazin-3-yl)-3-methyl-5-(trifluoromethyl)phenol], more than 100 µM; in that of `Cc1c(N[C@@H]2CCCN(C)C2)nnc(-c2ccc(C(F)(F)F)cc2O)c1C` [Ex 48, (R)-2-(4,5-Dimethyl-6-((1-methylpiperidin-3-yl)amino)pyridazin-3-yl)-5-(trifluoromethyl)phenol], more than 100 µM.
`Cc1cc(C(F)(F)F)cc(O)c1-c1ccc(NC2CCCN(C(C)C)C2)nn1` (stereo not drawn) [Ex 7, 2-(6-((1-Isopropylpiperidin-3-yl)amino)pyridazin-3-yl)-3-methyl-5-(trifluoromethyl)phenol]: the half-maximal inhibitory concentration (IC50) is more than 100 µM.
`Cc1cc(C(F)(F)F)cc(O)c1-c1ccc(N[C@@H]2CCCN(CCO)C2)nn1` [Ex 6, (R)-2-(6-((1-(2-Hydroxyethyl)piperidin-3-yl)amino)pyridazin-3-yl)-3-methyl-5-(trifluoromethyl)phenol] showed an IC50 of more than 100 µM.
In the case of `Cc1cc(N[C@@H]2CCCN(C)C2)nnc1-c1ccc(Cl)cc1O` [Ex 71, (R)-5-Chloro-2-(4-methyl-6-((1-methylpiperidin-3-yl)amino)pyridazin-3-yl)phenol] it was more than 100 µM.
For the molecule `Cc1cc(C(F)(F)F)cc(O)c1-c1ccc(N[C@@H]2CCCN(C[C@H](C)O)C2)nn1` [Ex 92a, 2-(6-(((R)-1-((S)-2-Hydroxypropyl)piperidin-3-yl)amino)pyridazin-3-yl)-3-methyl-5-(trifluoromethyl)phenol], the IC50 was more than 100 µM.
Next, `CCN1CCC[C@@H](Nc2nnc(-c3c(C)cc(C(F)(F)F)cc3O)cc2C)C1` [Ex 101, (R)-2-(6-((1-Ethylpiperidin-3-yl)amino)-5-methylpyridazin-3-yl)-3-methyl-5-(trifluoromethyl)-phenol]: more than 100 µM; `Cc1cc(C(F)(F)F)cc(O)c1-c1ccc(Nc2cccnc2)nn1` [Ex 46, 3-Methyl-2-(6-(pyridin-3-ylamino)pyridazin-3-yl)-5-(trifluoromethyl)phenol]: more than 100 µM; `Oc1cc(Cl)cc(Cl)c1-c1ccc(NC2CC2)nn1` [Ex 44, 3,5-Dichloro-2-(6-(cyclopropylamino)pyridazin-3-yl)phenol]: more than 100 µM.
In the case of `Cc1cc(C)c(-c2ccc(N[C@@H]3CCCN(C)C3)nn2)c(O)c1` [Ex 47, (R)-3,5-Dimethyl-2-(6-((1-methylpiperidin-3-yl)amino)pyridazin-3-yl)phenol] it was more than 100 µM; in that of `Cc1cc(C(F)(F)F)cc(O)c1-c1ccc(NC2CCC(C(F)(F)F)NC2)nn1` (stereo not drawn) [Ex 62, 3-Methyl-5-(trifluoromethyl)-2-(6-((6-(trifluoromethyl)piperidin-3-yl)amino)pyridazin-3-yl)phenol], more than 100 µM.
In the case of `Cc1cc(-c2c(C)cc(C(F)(F)F)cc2O)nnc1N[C@@H]1CCCNC1` [Ex 100, (R)-3-Methyl-2-(5-methyl-6-(piperidin-3-ylamino)pyridazin-3-yl)-5-(trifluoromethyl)phenol] it was more than 100 µM; in that of `Cc1cc(C(F)(F)F)cc(O)c1-c1ccc(N[C@H]2CCCN(C)C2)nn1` [Ex 36, (S)-3-Methyl-2-(6-((1-methylpiperidin-3-yl)amino)pyridazin-3-yl)-5-(trifluoromethyl)phenol], more than 100 µM.
`Cc1cc(C(F)(F)F)cc(O)c1-c1ccc(N[C@@H]2CCCN(CC(C)(C)O)C2)nn1` [Ex 80, (R)-2-(6-((1-(2-Hydroxy-2-methylpropyl)piperidin-3-yl)amino)pyridazin-3-yl)-3-methyl-5-(trifluoromethyl)phenol] came in with an IC50 of more than 33 µM.
In the case of `CN1CCC[C@@H](Nc2ccc(-c3c(O)cc(Cl)cc3C(F)(F)F)nn2)C1` [Ex 51, (R)-5-Chloro-2-(6-((1-methylpiperidin-3-yl)amino)pyridazin-3-yl)-3-(trifluoromethyl)phenol] it was more than 100 µM; in that of `CN1CCC[C@@H](Nc2ccc(-c3c(O)cc(C(F)(F)F)cc3C(F)(F)F)nn2)C1` [Ex 39, (R)-2-(6-((1-Methylpiperidin-3-yl)amino)pyridazin-3-yl)-3,5-bis(trifluoromethyl)phenol], more than 100 µM; in that of `Cc1cc(N[C@@H]2CCCN(C)C2)nnc1-c1ccc(OC(F)(F)F)cc1O` [Ex 82, (R)-2-(4-Methyl-6-((1-methylpiperidin-3-yl)amino)pyridazin-3-yl)-5-(trifluoromethoxy)phenol], more than 100 µM.
Take `Cc1cc(C(F)(F)F)cc(O)c1-c1ccc(N[C@@H]2CCCN[C@@H]2C)nn1` [Ex 91b, 3-Methyl-2-(6-(((2R,3R)-2-methylpiperidin-3-yl)amino)pyridazin-3-yl)-5-(trifluoromethyl) phenol]: the IC50 is more than 100 µM.
In the case of `Cc1cc(C(F)(F)F)cc(O)c1-c1ccc(N[C@@H]2CCCN(C)C2)nn1` [Ex 12, (R)-3-Methyl-2-(6-((1-methylpiperidin-3-yl)amino)pyridazin-3-yl)-5-(trifluoromethyl)phenol] it was more than 100 µM; in that of `Cc1cc(-c2c(C)cc(C(F)(F)F)cc2O)nnc1N[C@@H]1CCCN(C)C1` [Ex 5, (R)-3-Methyl-2-(5-methyl-6-((1-methylpiperidin-3-yl)amino)pyridazin-3-yl)-5-(trifluoromethyl)phenol], more than 33 µM.
In the case of `Cc1ccc(-c2nnc(N[C@@H]3CCCN(C)C3)cc2C(F)(F)F)c(O)c1` [Ex 50, (R)-5-Methyl-2-(6-((1-methylpiperidin-3-yl)amino)-4-(trifluoromethyl)pyridazin-3-yl)phenol] it was more than 100 µM; in that of `CCN1CCC[C@@H](Nc2ccc(-c3c(C)cc(C(F)(F)F)cc3O)nn2)C1` [Ex 1, (R)-2-(6-((1-Ethylpiperidin-3-yl)amino)pyridazin-3-yl)-3-methyl-5-(trifluoromethyl)phenol], more than 100 µM.
Next, `Cc1cc(C(F)(F)F)cc(O)c1-c1ccc(N[C@H]2CC[C@@H](CO)N(C)C2)nn1` [Ex 87b, 2-(6-(((3S,6S)-6-(Hydroxymethyl)-1-methylpiperidin-3-yl)amino)pyridazin-3-yl)-3-methyl-5-(trifluoromethyl)phenol]: 77 µM; `Cc1cc(N[C@@H]2CCCN(C)C2)nnc1-c1ccc(C(F)(F)F)cc1O` [Ex 4, (R)-2-(4-Methyl-6-((1-methylpiperidin-3-yl)amino)pyridazin-3-yl)-5-(trifluoromethyl)phenol]: more than 100 µM.
For `CN1CCC[C@@H](Nc2cc(C(F)(F)F)c(-c3ccc(C(F)(F)F)cc3O)nn2)C1` [Ex 53, (R)-2-(6-((1-Methylpiperidin-3-yl)amino)-4-(trifluoromethyl)pyridazin-3-yl)-5-(trifluoromethyl)phenol], the IC50 is more than 33 µM.
Regarding `Cc1cc(C(F)(F)F)cc(O)c1-c1ccc(N[C@H]2CCCNC2)nn1` [Ex 33, (S)-3-Methyl-2-(6-(piperidin-3-ylamino)pyridazin-3-yl)-5-(trifluoromethyl)phenol], the IC50 was more than 100 µM.
Next, `Cc1cc(C(F)(F)F)cc(O)c1-c1ccc(N[C@@H]2CC[C@H](CO)N(C)C2)nn1` [Ex 87a, 2-(6-(((3R,6R)-6-(Hydroxymethyl)-1-methylpiperidin-3-yl)amino)pyridazin-3-yl)-3-methyl-5-(trifluoromethyl)phenol]: more than 100 µM; `Cc1cc(C(F)(F)F)cc(O)c1-c1ccc(O[C@@H]2CCCN(C)C2)nn1` [Ex 42, (R)-3-Methyl-2-(6-((1-methylpiperidin-3-yl)oxy)pyridazin-3-yl)-5-(trifluoromethyl)phenol]: more than 100 µM; `Oc1cc(Cl)cc(Cl)c1-c1ccc(NCC(F)(F)F)nn1` [Ex 27, 3,5-Dichloro-2-(6-((2,2,2-trifluoroethyl)amino)pyridazin-3-yl)phenol]: more than 100 µM.
Take `CN1CCC[C@@H](Nc2cc(C(F)(F)F)c(-c3ccc(Cl)cc3O)nn2)C1` [Ex 70, (R)-5-Chloro-2-(6-((1-methylpiperidin-3-yl)amino)-4-(trifluoromethyl)pyridazin-3-yl)phenol]: the IC50 is more than 100 µM.
In the case of `Cc1cc(C(F)(F)F)cc(O)c1-c1ccc(N[C@H]2CCN(C)C2)nn1` [Ex 18, (S)-3-Methyl-2-(6-((1-methylpyrrolidin-3-yl)amino)pyridazin-3-yl)-5-(trifluoromethyl)phenol] it was more than 100 µM.
In the case of `Cc1cc(C(F)(F)F)cc(O)c1-c1ccc(NC2CNCC(F)(F)C2)nn1` (stereo not drawn) [Ex 9, 2-(6-((5,5-Difluoropiperidin-3-yl)amino)pyridazin-3-yl)-3-methyl-5-(trifluoromethyl)phenol] it was more than 100 µM; in that of `Cc1cc(C(F)(F)F)cc(O)c1-c1cc(C(F)(F)F)c(N[C@@H]2CCCN(C)C2)nn1` [Ex 64, (R)-3-Methyl-2-(6-((1-methylpiperidin-3-yl)amino)-5-(trifluoromethyl)pyridazin-3-yl)-5-(trifluoromethyl)phenol], more than 100 µM.
Next, `Cc1cc(C(F)(F)F)cc(O)c1-c1ccc(N[C@@H]2CCCNC2)nn1` [Ex 74, (R)-3-Methyl-2-(6-(piperidin-3-ylamino)pyridazin-3-yl)-5-(trifluoromethyl)phenol]: more than 100 µM.
